Test results as given in the NIST ThermoML archive (doi:10.1016/j.fluid.2011.07.005).
± gives the expanded uncertainty stated by the source.

How the values were obtained:
[1] = refractive index (Na D-line) (dimensionless); conditions: 298.15 K; 101.33 kPa; Liquid; Standard Abbe refractometry
[2] = 298.15 K; 101.33 kPa; Liquid; Vibrating tube method
[3] = refractive index (Na D-line) (dimensionless); xn = mol fraction of the nth substance listed; conditions: 298.15 K, 101.3 kPa, Liquid, Standard Abbe refractometry
[4] = xn = mol fraction of the nth substance listed; conditions: 298.15 K, 101.3 kPa, Liquid, Vibrating tube method

With `CC(CC(C)(C)C)CP(=O)([O-])CC(C)CC(C)(C)C.CCCCCCCCCCCCCC[P+](CCCCCC)(CCCCCC)CCCCCC` the refractive index [1] was 1.47125 ± 0.00039 and the mass density [2] was 886.43 ± 0.24 kg/m3.
Compound `CCCCCCCCCCCCCC[P+](CCCCCC)(CCCCCC)CCCCCC.[Cl-]` [trihexyl(tetradecyl)phosphonium chloride] has a refractive index [1] of 1.48175 ± 0.00039 and a mass density [2] of 891.82 ± 0.24 kg/m3.
For `CCCCCCCCCCCCCC[P+](CCCCCC)(CCCCCC)CCCCCC.[Cl-]` [trihexyl(tetradecyl)phosphonium chloride] + CC(C)OC(C)C, the refractive index ([3]; x2 = 0.0515) was 1.4808 ± 0.0004, the refractive index ([3]; x2 = 0.0994) was 1.4794 ± 0.0004 and the refractive index ([3]; x2 = 0.2017) was 1.4763 ± 0.0004. The refractive index ([3]; x2 = 0.2989) was 1.4726 ± 0.0004, the refractive index ([3]; x2 = 0.4018) was 1.4678 ± 0.0004 and the refractive index ([3]; x2 = 0.4997) was 1.4641 ± 0.0004. The refractive index ([3]; x2 = 0.5994) was 1.4553 ± 0.0004, the refractive index ([3]; x2 = 0.7017) was 1.4478 ± 0.0004 and the refractive index ([3]; x2 = 0.8004) was 1.4384 ± 0.0004. The refractive index ([3]; x2 = 0.8993) was 1.4076 ± 0.0004, the refractive index ([3]; x2 = 0.9491) was 1.3881 ± 0.0004 and the mass density ([4]; x2 = 0.0515) was 889.99 ± 0.23 kg/m3. It also gave a mass density ([4]; x2 = 0.0994) of 888.06 ± 0.22 kg/m3, a mass density ([4]; x2 = 0.2017) of 883.38 ± 0.21 kg/m3 and a mass density ([4]; x2 = 0.2989) of 878.11 ± 0.2 kg/m3. The mass density ([4]; x2 = 0.4018) was 871.47 ± 0.19 kg/m3, the mass density ([4]; x2 = 0.4997) was 863.46 ± 0.19 kg/m3 and the mass density ([4]; x2 = 0.5994) was 852.63 ± 0.18 kg/m3. The mass density ([4]; x2 = 0.7017) was 836.78 ± 0.18 kg/m3, the mass density ([4]; x2 = 0.8004) was 814.03 ± 0.18 kg/m3 and the mass density ([4]; x2 = 0.8993) was 778.62 ± 0.19 kg/m3. It also gave a mass density ([4]; x2 = 0.9491) of 752.99 ± 0.21 kg/m3.
In the case of `CCCCCCCCCCCCCC[P+](CCCCCC)(CCCCCC)CCCCCC.[Cl-]` [trihexyl(tetradecyl)phosphonium chloride] + CCO, the refractive index ([3]; x2 = 0.0616) is reported as 1.4814 ± 0.0004, the refractive index ([3]; x2 = 0.1053) is reported as 1.4807 ± 0.0004 and the refractive index ([3]; x2 = 0.2113) is reported as 1.4789 ± 0.0004. The refractive index ([3]; x2 = 0.3038) was 1.4764 ± 0.0004, the refractive index ([3]; x2 = 0.4034) was 1.4742 ± 0.0004 and the refractive index ([3]; x2 = 0.499) was 1.4709 ± 0.0004. It also gave a refractive index ([3]; x2 = 0.6004) of 1.466 ± 0.0004, a refractive index ([3]; x2 = 0.7038) of 1.4585 ± 0.0004 and a refractive index ([3]; x2 = 0.7993) of 1.4473 ± 0.0004. For the same compound, the refractive index ([3]; x2 = 0.8999) was 1.425 ± 0.0004, the refractive index ([3]; x2 = 0.9497) was 1.4058 ± 0.0004 and the refractive index ([3]; x2 = 0.9808) was 1.3801 ± 0.0004. For the same compound, the mass density ([4]; x2 = 0.0616) was 891.17 ± 0.23 kg/m3, the mass density ([4]; x2 = 0.1053) was 890.69 ± 0.22 kg/m3 and the mass density ([4]; x2 = 0.2113) was 889.27 ± 0.21 kg/m3. The mass density ([4]; x2 = 0.3038) was 887.74 ± 0.2 kg/m3, the mass density ([4]; x2 = 0.4034) was 885.65 ± 0.19 kg/m3 and the mass density ([4]; x2 = 0.499) was 882.9 ± 0.18 kg/m3. It also gave a mass density ([4]; x2 = 0.6004) of 878.9 ± 0.18 kg/m3, a mass density ([4]; x2 = 0.7038) of 872.77 ± 0.17 kg/m3 and a mass density ([4]; x2 = 0.7993) of 863.65 ± 0.17 kg/m3. For the same compound, the mass density ([4]; x2 = 0.8999) was 845.08 ± 0.17 kg/m3, the mass density ([4]; x2 = 0.9497) was 826.4 ± 0.19 kg/m3 and the mass density ([4]; x2 = 0.9808) was 805.94 ± 0.21 kg/m3.
